One experiment has as its system LHb neurons. The experiment is classed as cell-based.
Settings: not given
`[Ba+2].[Cl-].[Cl-]` [BaCl2]: the “firing frequency of bursting neurons” value is reported as “dramatic increase”.

Still in this experiment, the particulars now being: BaCl2 100 μM, about 10 min bath perfusion.
Regarding `[Ba+2].[Cl-].[Cl-]` [BaCl2], the “RMPs of tonic and burst-firing LHb neurons” value is on record as “depolarized”.

The target in another experiment is T1, Kir4.1 (Homo sapiens, UniProt P78508).
T1 sequence (P78508 1-379): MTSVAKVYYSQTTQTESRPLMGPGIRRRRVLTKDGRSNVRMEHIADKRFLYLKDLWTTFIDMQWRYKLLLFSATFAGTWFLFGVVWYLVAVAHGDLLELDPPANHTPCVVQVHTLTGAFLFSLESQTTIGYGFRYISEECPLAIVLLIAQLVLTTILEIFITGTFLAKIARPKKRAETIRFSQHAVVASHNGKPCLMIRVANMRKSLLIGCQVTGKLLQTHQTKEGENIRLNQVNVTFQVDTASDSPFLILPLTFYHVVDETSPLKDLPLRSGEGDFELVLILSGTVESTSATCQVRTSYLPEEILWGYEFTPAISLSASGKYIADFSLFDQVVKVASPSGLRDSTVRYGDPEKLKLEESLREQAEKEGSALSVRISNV
The conditions noted are these: Ohno et al., 2007; Wang et al., 2006; Kharade et al., 2018; cited from earlier work.
As to `CC(C)c1ccc(OCC(=O)NC2CC(C)(C)NC(C)(C)C2)c(Br)c1` [VU0134992], the “Kir4.1 inhibition (literature statement)” value is “highly selective and specific Kir4.1 inhibitor”.

For `CN(C)CCC=C1c2ccccc2CCc2ccccc21` [amitriptyline], the “Kir4.1 inhibition (literature statement)” value is “inhibit Kir4.1, yet with lower affinity”.

As to `CNCCCN1c2ccccc2CCc2ccccc21` [desipramine], the “Kir4.1 inhibition (literature statement)” value is “inhibit Kir4.1, yet with lower affinity”.

Regarding `CNCCC(Oc1ccc(C(F)(F)F)cc1)c1ccccc1` (stereo not shown) [fluoxetine], the “Kir4.1 inhibition (literature statement)” value is on record as “inhibit Kir4.1, yet with lower affinity”.

Turning to `COCCCC/C(=N\OCCN)c1ccc(C(F)(F)F)cc1` [fluvoxamine], the “Kir4.1 inhibition (literature statement)” value is “inhibit Kir4.1, yet with lower affinity”.

In the case of `CN(C)CCCN1c2ccccc2CCc2ccccc21` [imipramine], the “Kir4.1 inhibition (literature statement)” value is on record as “inhibit Kir4.1, yet with lower affinity”.

For `CNCCC=C1c2ccccc2CCc2ccccc21` [nortriptyline], the “Kir4.1 inhibition (literature statement)” value was “inhibit Kir4.1, yet with lower affinity”.

With `CN[C@H]1CC[C@@H](c2ccc(Cl)c(Cl)c2)c2ccccc21` [sertraline], the “Kir4.1 inhibition (literature statement)” value was “inhibit Kir4.1, yet with lower affinity”.

The record behind these values is patent publication US11326168B2, “Use of potassium channel inhibitor for treating depression” (ZHEJIANG UNIVERSITY, priority 2017, dated 2022).
